Key:
Type in all cases: cell-based, Escherichia coli
E. coli DHB4 [1] = assay: E. coli DHB4 growth in micro-well plates, OD600 nm, 16 h; details: 16 h treatment
Procedure: The effect of silver nitrate with ebselen in combination on the growth of Gram-negative model bacteria, E. coli, was investigated in the microplates. DHB4 overnight cultures were diluted 1:1000 times in Luria-Bertani (LB) medium, and treated with ionic silver (Ag^+) as a nitrate salt (AgNO3) for 16 h.
E. coli DHB4 cells overnight cultures were diluted 1:1000 times in Luria-Bertani (LB) medium and treated with serial concentrations of AgNO3 and/or ebselen for 16 h. The cell viability was determined by measuring the absorbance at 600 nm. The culture treated with 0.8% (v/v) DMSO was used as a control.
E. coli DHB4 cells were grown until an OD600 nm of 0.4, and treated with serial dilutions of ebselen (0, 2, 4, 8 μM) for 16 h. The cell viability was determined by measuring the absorbance at 600 nm. The culture treated with 0.8% (v/v) DMSO was used as a control.

E. coli DHB4 [2] = assay: ROS production, H2DCF-DA staining, flow cytometry; details: 5 μM Ag^+ alone or 20 μM ebselen alone
Procedure: The E. coli DHB4 cells were grown till the absorbance at OD600 nm of 0.4 in LB medium, and the bacterial cells were treated with different combinations of ebselen and AgNO3 for 10 min. To analyze the amount of ROS production in the bacteria, cells were harvested by centrifugation at 6,000 rpm for 5 min and thoroughly washed 3 times with PBS, and stained with 5 μM H2DCF-DA for 20 min. After the incubation, cells were spin down and re-suspended in PBS, and the ROS production was quantified by flow cytometry (CyAn adp, Beckman coulter).
The E. coli DHB4 cells were grown till the absorbance at OD600 nm of 0.4 in LB medium, and the bacterial cells were treated with silver and antibiotics in combinations for 10 min. To analyze the amount of ROS production in the bacteria, cells were harvested by centrifugation at 6,000 rpm for 5 min and thoroughly washed 3 times with PBS, and stained with 5 μM H2DCF-DA for 20 min. After the incubation, cells were spun down and re-suspended in PBS, and the ROS production was quantified by flow cytometry (CyAnadp, Beckman coulter).

E. coli DHB4 [3] = assay: E. coli growth curves in 15 ml tubes, OD600 nm; details: 40 μM ebselen or 5 μM Ag^+ alone
Procedure: The large scale growth inhibition of E. coli by Ag^+ with ebselen in combination was also observed in shaking testing 15 ml tubes. […] PI is a membrane-impermeable fluorescent dye that has been widely used to detect permeation of cell membrane and dead cells.
E. coli DHB4 cells were grown in 15 ml tubes until an OD600 nm of 0.4, and treated with 5 μM AgNO3 and serial concentration of ebselen (0, 20, 40, 80 μM) in combination. The survival of untreated E. coli was compared with the antibiotic-treated cells by measuring OD600 nm and counting the colonies. For colony formation assay, cells were harvested at 10 min, 1 h, 2 h, and 4 h by centrifugation at 6,000 rpm for 5 min and thoroughly washed 3 times with PBS. The cells were serially diluted in PBS, and 100 μl cultures were plated on LB plates. The colonies were counted after overnight incubation, and CFU/ml was calculated using the following formula: [(colonies)*(dilution factor)]/(amount plated).

E. coli DHB4 WT = assay: MIC of silver and ebselen on E. coli DHB4 redox phenotypes; details: 24 h
Procedure: (§1) Since Trx and GSH/Grx are major thiol-dependent systems, investigated were the effects of Ag^+ with ebselen in combination on Trx or GSH system-deficient E. coli redox mutants.
(§2) Serial dilutions of ebselen and AgNO3 were added to the individual wells. The minimum inhibitory concentration (MIC) was determined after 24 h culture at 37° C.

E. coli DHB4 trxA^− = assay: microbe, parasite or virus in culture; details: 24 h
Procedure: as §1, §2

[4] = system: E. coli DHB4 trxA^−B^−C^−; assay: microbe, parasite or virus in culture; details: 24 h
Procedure: as §1, §2

E. coli DHB4 trxB^− = assay: microbe, parasite or virus in culture; details: 24 h
Procedure: as §1, §2

E. coli DHB4 gor^− = assay: microbe, parasite or virus in culture; details: 24 h
Procedure: as §1, §2

[5] = system: E. coli DHB4 trxA^−gshA^−; assay: microbe, parasite or virus in culture; details: trxA^−gshA^−, 24 h
Procedure: as §1, §2

E. coli DHB4 gshA^− = assay: microbe, parasite or virus in culture; details: gshA^−, 24 h
Procedure: as §1, §2

[6] = system: E. coli DHB4 gor^−grxA^−B^−C^−; assay: microbe, parasite or virus in culture; details: 24 h
Procedure: as §1, §2

E. coli DHB4 trxC^− = assay: microbe, parasite or virus in culture; details: trxC^−, 24 h
Procedure: as §1, §2

[7] = system: E. coli DHB4 grxA^−trxA^−; assay: microbe, parasite or virus in culture; details: 24 h
Procedure: as §1, §2

O=[N+]([O-])[O-].[Ag+] [silver, silver nitrate]
minimal inhibition concentration (MIC) of Ag^+ (E. coli DHB4 [1]; Ag^+ alone): 42 µM | MIC of Ag^+ (E. coli DHB4 [1]; with 2 μM ebselen): 4.2 µM | ROS concentrations (E. coli DHB4 [2]): did not change ROS concentrations | E. coli growth (OD600 nm) (E. coli DHB4 [3]): did not inhibit bacterial growth | MIC of silver in the presence of ebselen (E. coli DHB4 WT; Ebselen 0 μM): 40 µM | MIC of silver in the presence of ebselen (E. coli DHB4 WT; Ebselen 1 μM): 10 µM | MIC of silver in the presence of ebselen (E. coli DHB4 WT; Ebselen 2 μM): 5 µM | MIC of silver in the presence of ebselen (E. coli DHB4 WT; Ebselen 4 μM): 1.25 µM | MIC of silver in the presence of ebselen (E. coli DHB4 trxA^−; Ebselen 0 μM): 40 µM | MIC of silver in the presence of ebselen (E. coli DHB4 trxA^−; Ebselen 1 μM): 10 µM | MIC of silver in the presence of ebselen (E. coli DHB4 trxA^−; Ebselen 2 μM): 2.5 µM | MIC of silver in the presence of ebselen (E. coli DHB4 trxA^−; Ebselen 4 μM): 1.25 µM | MIC of silver in the presence of ebselen ([4]; Ebselen 0 μM): 40 µM | MIC of silver in the presence of ebselen ([4]; Ebselen 1 μM): 10 µM | MIC of silver in the presence of ebselen ([4]; Ebselen 2 μM): 2.5 µM | MIC of silver in the presence of ebselen ([4]; Ebselen 4 μM): 1.25 µM | MIC of silver in the presence of ebselen (E. coli DHB4 trxB^−; Ebselen 0 μM): 40 µM | MIC of silver in the presence of ebselen (E. coli DHB4 trxB^−; Ebselen 1 μM): 10 µM | MIC of silver in the presence of ebselen (E. coli DHB4 trxB^−; Ebselen 2 μM): 2.5 µM | MIC of silver in the presence of ebselen (E. coli DHB4 trxB^−; Ebselen 4 μM): 0.625 µM | MIC of silver in the presence of ebselen (E. coli DHB4 gor^−; Ebselen 0 μM): 40 µM | MIC of silver in the presence of ebselen (E. coli DHB4 gor^−; Ebselen 1 μM): 10 µM | MIC of silver in the presence of ebselen (E. coli DHB4 gor^−; Ebselen 2 μM): 5 µM | MIC of silver in the presence of ebselen (E. coli DHB4 gor^−; Ebselen 4 μM): 1.25 µM | MIC of silver in the presence of ebselen ([5]; Ebselen 0 μM): 20 µM | MIC of silver in the presence of ebselen ([5]; Ebselen 1 μM): 5 µM | MIC of silver in the presence of ebselen ([5]; Ebselen 2 μM): 2.5 µM | MIC of silver in the presence of ebselen ([5]; Ebselen 4 μM): 0.625 µM | MIC of silver in the presence of ebselen (E. coli DHB4 gshA^−; Ebselen 0 μM): 20 µM | MIC of silver in the presence of ebselen (E. coli DHB4 gshA^−; Ebselen 1 μM): 5 µM | MIC of silver in the presence of ebselen (E. coli DHB4 gshA^−; Ebselen 2 μM): 2.5 µM | MIC of silver in the presence of ebselen (E. coli DHB4 gshA^−; Ebselen 4 μM): 0.625 µM | MIC of silver in the presence of ebselen ([6]; Ebselen 0 μM): 20 µM | MIC of silver in the presence of ebselen ([6]; Ebselen 1 μM): 10 µM | MIC of silver in the presence of ebselen ([6]; Ebselen 2 μM): 2.5 µM | MIC of silver in the presence of ebselen ([6]; Ebselen 4 μM): 0.625 µM | MIC of silver in the presence of ebselen (E. coli DHB4 trxC^−; Ebselen 0 μM): 40 µM | MIC of silver in the presence of ebselen (E. coli DHB4 trxC^−; Ebselen 1 μM): 10 µM | MIC of silver in the presence of ebselen (E. coli DHB4 trxC^−; Ebselen 2 μM): 5 µM | MIC of silver in the presence of ebselen (E. coli DHB4 trxC^−; Ebselen 4 μM): 1.25 µM | MIC of silver in the presence of ebselen ([7]; Ebselen 0 μM): 20 µM | MIC of silver in the presence of ebselen ([7]; Ebselen 1 μM): 10 µM | MIC of silver in the presence of ebselen ([7]; Ebselen 2 μM): 2.5 µM | MIC of silver in the presence of ebselen ([7]; Ebselen 4 μM): 0.625 µM
